Laboratory results from ChEMBL document CHEMBL5620345, “Metal binding pharmacophore click-derived discovery of new broad-spectrum metallo-β-lactamase inhibitors” (Eur J Med Chem, 2023).

Tests used:
[1] = Inhibition of recombinant his tagged IMP1 (unknown origin) expressed in Escherichia coli (DE3) cells using FC5 as substrate by microplate reader assay
[2] = Inhibition of recombinant NDM1 (unknown origin) expressed in Escherichia coli (DE3) cells using FC5 as substrate by microplate reader assay
[3] = Inhibition of recombinant VIM-1 (unknown origin) expressed in Escherichia coli (DE3) cells using FC5 as substrate by microplate reader assay
[4] = Inhibition of recombinant his tagged VIM-2 (unknown origin) expressed in Escherichia coli (DE3) cells using FC5 as substrate by microplate reader assay
[5] = Inhibition of recombinant VIM-5 (unknown origin) expressed in Escherichia coli (DE3) cells using FC5 as substrate by microplate reader assay
Escherichia coli [6] = assay: Antibacterial activity against Escherichia coli BAA2452 expressing blaNDM-1 clinical isolates assessed as meropenem MIC incubated for 16 to 18 hrs by broth microdilution method; format: functional; settings: time 16-18 hrs; further: test concentration or dose not given here
Enterobacterales [7] = assay: Antibacterial activity against Carbapenem-Resistant Enterobacterales 19 expressing blaNDM-1 clinical isolates assessed as meropenem MIC incubated for 16 to 18 hrs by broth microdilution method; format: functional; settings: time 16-18 hrs; further: test concentration or dose not given here
Klebsiella pneumoniae [8] = assay: Antibacterial activity against Klebsiella pneumoniae BAA2470 expressing blaNDM-1 clinical isolates assessed as meropenem MIC incubated for 16 to 18 hrs by broth microdilution method; format: functional; settings: time 16-18 hrs; further: test concentration or dose not given here
Escherichia coli [9] = assay: Antibacterial activity against Escherichia coli C1580 expressing blaIMP-1 clinical isolates assessed as meropenem MIC incubated for 16 to 18 hrs by broth microdilution method; format: functional; settings: time 16-18 hrs; further: test concentration or dose not given here
Escherichia coli [10] = assay: Antibacterial activity against Escherichia coli C1541 expressing blaVIM-2 clinical isolates assessed as meropenem MIC incubated for 16 to 18 hrs by broth microdilution method; format: functional; settings: time 16-18 hrs; further: test concentration or dose not given here
Escherichia coli [11] = assay: Antibacterial activity against Escherichia coli BAA2452 expressing blaNDM-1 clinical isolates assessed as fold potentiation incubated for 16 to 18 hrs by broth microdilution method; format: functional; settings: time 16-18 hrs; further: test concentration or dose not given here
Enterobacterales [12] = assay: Antibacterial activity against Carbapenem-Resistant Enterobacterales 19 expressing blaNDM-1 clinical isolates assessed as fold potentiation incubated for 16 to 18 hrs by broth microdilution method; format: functional; settings: time 16-18 hrs; further: test concentration or dose not given here
Klebsiella pneumoniae [13] = assay: Antibacterial activity against Klebsiella pneumoniae BAA2470 expressing blaNDM-1 clinical isolates assessed as fold potentiation incubated for 16 to 18 hrs by broth microdilution method; format: functional; settings: time 16-18 hrs; further: test concentration or dose not given here
Escherichia coli [14] = assay: Antibacterial activity against Escherichia coli C1580 expressing blaIMP-1 clinical isolates assessed as fold potentiation incubated for 16 to 18 hrs by broth microdilution method; format: functional; settings: time 16-18 hrs; further: test concentration or dose not given here
Escherichia coli [15] = assay: Antibacterial activity against Escherichia coli C1541 expressing blaVIM-2 clinical isolates assessed as fold potentiation incubated for 16 to 18 hrs by broth microdilution method; format: functional; settings: time 16-18 hrs; further: test concentration or dose not given here

`CCCc1ccc(C(c2cccc(-n3cc(-c4cccc(N)c4)nn3)c2)P(=O)(O)O)cc1` (stereo not given) gave an IC50 [1] of 0.19 µM, an IC50 [2] of 0.46 µM and an IC50 [3] of 0.53 µM. For the same molecule, the IC50 [4] was 0.014 µM, the IC50 [5] was 0.00056 µM and the MIC (Escherichia coli [6]) was 16 µg/mL. It also gave an MIC (Enterobacterales [7]) of 8 µg/mL, an MIC (Klebsiella pneumoniae [8]) of 64 µg/mL and an MIC (Escherichia coli [9]) of 2 µg/mL. For the same molecule, the MIC (Escherichia coli [10]) was 2 µg/mL, the “fold change (FC)” value (Escherichia coli [11]) was 8 and the “fold change (FC)” value (Enterobacterales [12]) was 8. For the same molecule, the “fold change (FC)” value (Klebsiella pneumoniae [13]) was greater than 2, the “fold change (FC)” value (Escherichia coli [14]) was 16 and the “fold change (FC)” value (Escherichia coli [15]) was 8.

With `CC(C)(C)c1ccc(C(c2cccc(-n3cc(-c4cccc(N)c4)nn3)c2)P(=O)(O)O)cc1` (stereo not given) the IC50 [1] was 1.37 µM, the IC50 [2] was 0.18 µM and the IC50 [3] was 0.71 µM. It also gave an IC50 [4] of 0.009 µM, an IC50 [5] of 0.001 µM and an MIC (Escherichia coli [6]) of 16 µg/mL. It also gave an MIC (Enterobacterales [7]) of 8 µg/mL, an MIC (Klebsiella pneumoniae [8]) of 64 µg/mL and an MIC (Escherichia coli [9]) of 2 µg/mL. For the same molecule, the MIC (Escherichia coli [10]) was 2 µg/mL, the “fold change (FC)” value (Escherichia coli [11]) was 8 and the “fold change (FC)” value (Enterobacterales [12]) was 8. The “fold change (FC)” value (Klebsiella pneumoniae [13]) was greater than 2, the “fold change (FC)” value (Escherichia coli [14]) was 16 and the “fold change (FC)” value (Escherichia coli [15]) was 8.

Work on `Nc1cccc(-c2cn(-c3cccc(C(c4ccc(-c5ccccc5)cc4)P(=O)(O)O)c3)nn2)c1` (stereo not given) yielded an IC50 [1] of 0.15 µM, an IC50 [2] of 0.18 µM and an IC50 [3] of 0.35 µM. For the same molecule, the IC50 [4] was 0.00043 µM, the IC50 [5] was 0.002 µM and the MIC (Escherichia coli [6]) was 16 µg/mL. It also gave an MIC (Enterobacterales [7]) of 8 µg/mL, an MIC (Klebsiella pneumoniae [8]) of 64 µg/mL and an MIC (Escherichia coli [9]) of 2 µg/mL. The MIC (Escherichia coli [10]) was 2 µg/mL, the “fold change (FC)” value (Escherichia coli [11]) was 8 and the “fold change (FC)” value (Enterobacterales [12]) was 8. The “fold change (FC)” value (Klebsiella pneumoniae [13]) was greater than 2, the “fold change (FC)” value (Escherichia coli [14]) was 16 and the “fold change (FC)” value (Escherichia coli [15]) was 8.

For `Nc1cccc(-c2cn(-c3cccc(C(c4ccc(-c5ccc(Br)cc5)cc4)P(=O)(O)O)c3)nn2)c1` (stereo not given), the IC50 [1] was 12 µM, the IC50 [2] was 4.9 µM and the IC50 [3] was 1.71 µM. For the same molecule, the IC50 [4] was 0.008 µM, the IC50 [5] was 0.002 µM and the MIC (Escherichia coli [6]) was 8 µg/mL. For the same molecule, the MIC (Enterobacterales [7]) was 8 µg/mL, the MIC (Klebsiella pneumoniae [8]) was 64 µg/mL and the MIC (Escherichia coli [9]) was 1 µg/mL. For the same molecule, the MIC (Escherichia coli [10]) was 2 µg/mL, the “fold change (FC)” value (Escherichia coli [11]) was 16 and the “fold change (FC)” value (Enterobacterales [12]) was 8. For the same molecule, the “fold change (FC)” value (Klebsiella pneumoniae [13]) was greater than 2, the “fold change (FC)” value (Escherichia coli [14]) was 32 and the “fold change (FC)” value (Escherichia coli [15]) was 8.

In the case of `Nc1cccc(-c2cn(-c3cccc(C(c4cccc5ccccc45)P(=O)(O)O)c3)nn2)c1` (stereo not given), the IC50 [1] is reported as 0.037 µM, the IC50 [2] is reported as 0.92 µM and the IC50 [3] is reported as 0.13 µM. For the same molecule, the IC50 [4] was 0.006 µM, the IC50 [5] was 0.00029 µM and the MIC (Escherichia coli [6]) was 16 µg/mL. The MIC (Enterobacterales [7]) was 4 µg/mL, the MIC (Klebsiella pneumoniae [8]) was 64 µg/mL and the MIC (Escherichia coli [9]) was 0.5 µg/mL. For the same molecule, the MIC (Escherichia coli [10]) was 1 µg/mL, the “fold change (FC)” value (Escherichia coli [11]) was 8 and the “fold change (FC)” value (Enterobacterales [12]) was 16. The “fold change (FC)” value (Klebsiella pneumoniae [13]) was greater than 2, the “fold change (FC)” value (Escherichia coli [14]) was 64 and the “fold change (FC)” value (Escherichia coli [15]) was 16.

Work on `CCCCc1ccc(C(c2cccc(-n3cc(-c4cccc(N)c4)nn3)c2)P(=O)(O)O)cc1` (stereo not given) yielded an IC50 [1] of 0.295 µM, an IC50 [2] of 0.15 µM and an IC50 [3] of 0.46 µM. The IC50 [4] was 0.015 µM, the IC50 [5] was 0.001 µM and the MIC (Escherichia coli [6]) was 8 µg/mL. For the same molecule, the MIC (Enterobacterales [7]) was 8 µg/mL, the MIC (Klebsiella pneumoniae [8]) was 64 µg/mL and the MIC (Escherichia coli [9]) was 1 µg/mL. For the same molecule, the MIC (Escherichia coli [10]) was 2 µg/mL, the “fold change (FC)” value (Escherichia coli [11]) was 16 and the “fold change (FC)” value (Enterobacterales [12]) was 8. The “fold change (FC)” value (Klebsiella pneumoniae [13]) was greater than 2, the “fold change (FC)” value (Escherichia coli [14]) was 32 and the “fold change (FC)” value (Escherichia coli [15]) was 8.
